Consider seven molecules from US10975068B2, “6-aminopyridin-3-yl thiazoles as modulators of RORγT” (Janssen Pharmaceutica NV, priority 2016, dated 2021).

One experiment deals with full-length human RORγt (Homo sapiens (Human), UniProt P51449). In words: RORγt (full-length human) reporter assay, Conditions B or C. In kind it is cell-based. The note with it: for inhibition at 3 µM: at 3 μM compound concentration, read-out: RORγt (FL) Reporter Assay B or C, % inhibition; for IC50: read-out: RORγt (FL) Reporter Assay B or C, IC50; for RORγt (FL) Reporter Assay B or C, % inhibition (value marked *): marked *: footnote not given. In a few lines:
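Readout is dual luciferase: firefly (GAL4-driven) normalized to DMSO-only and saturating-reference controls, then to CMV-Renilla. Full-length human RORγt fused to GAL4-DBD was transiently expressed in HEK293T; compound exposure ran overnight (16-20 h) starting 4-6 h after transfection, final FBS 1.3%, DMSO 0.1%.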

Experiment [1] has as its target human RORγt ligand binding domain (RORγt LBD) (Homo sapiens (Human), UniProt P51449). In words: RORγt ThermoFluor® assay (thermal shift binding). The note with it: read-out: ThermoFluor® Assay, Kd. Summed up:
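Binding was inferred from thermal stabilisation (ΔTm) of the E. coli-expressed RORγt LBD (0.065 mg/mL), monitored by 1,8-ANS (60 μM) emission at 500 nm during a 1 °C/min ramp. Buffer was Hepes 100 mM pH 7.0 with NaCl, GSH and Tween-20.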

Like-named read-outs stand apart in the source and are kept apart here.

Chain of full-length human RORγt (P51449 other isoform, or with tags, fused parts or gaps): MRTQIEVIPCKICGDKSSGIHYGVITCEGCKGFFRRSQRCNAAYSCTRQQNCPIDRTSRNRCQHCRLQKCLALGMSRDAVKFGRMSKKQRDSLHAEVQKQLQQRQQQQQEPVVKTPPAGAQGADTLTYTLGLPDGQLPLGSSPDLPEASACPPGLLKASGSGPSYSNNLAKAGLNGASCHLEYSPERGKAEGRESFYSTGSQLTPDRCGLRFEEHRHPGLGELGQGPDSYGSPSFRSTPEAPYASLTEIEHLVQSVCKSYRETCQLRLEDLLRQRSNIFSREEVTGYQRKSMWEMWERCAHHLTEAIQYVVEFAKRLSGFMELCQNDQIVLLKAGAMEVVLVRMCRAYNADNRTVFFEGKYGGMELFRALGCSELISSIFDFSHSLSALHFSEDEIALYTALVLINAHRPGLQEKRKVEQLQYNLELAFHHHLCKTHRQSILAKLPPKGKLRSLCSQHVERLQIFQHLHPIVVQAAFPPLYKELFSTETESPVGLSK
Chain of human RORγt ligand binding domain (RORγt LBD) (P51449 other isoform, or with tags, fused parts or gaps): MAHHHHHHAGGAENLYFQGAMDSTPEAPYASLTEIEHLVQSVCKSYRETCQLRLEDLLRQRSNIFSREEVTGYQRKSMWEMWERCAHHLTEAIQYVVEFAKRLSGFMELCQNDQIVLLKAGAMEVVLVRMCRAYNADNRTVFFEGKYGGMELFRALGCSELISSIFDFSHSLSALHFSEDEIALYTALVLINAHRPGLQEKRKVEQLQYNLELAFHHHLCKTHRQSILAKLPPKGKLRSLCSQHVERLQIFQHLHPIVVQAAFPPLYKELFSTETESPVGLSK

For the molecule `C[C@H](Nc1cc(C(F)F)c(-c2sc(C(=O)NC3CCOCC3)nc2C(=O)N2CC(F)(F)C[C@@H]2C)cn1)C(F)(F)F` [Example 448, 4-[(2S)-4,4-Difluoro-2-methyl-pyrrolidine-1-carbonyl]-5-[4-(difluoromethyl)-6-[[(1S)-2,2,2-trifluoro-1-methyl-ethyl]amino]-3-pyridyl]-N-tetrahydropyran-4-yl-thiazole-2-carboxamide], on full-length human RORγt, the inhibition at 3 µM amounted to 99% and the IC50 stood at 28 nM. Besides, in experiment [1], the Kd turned out to be 0.8 nM.

On to `C[C@H]1CCCCN1C(=O)c1nc(C(=O)NC2CCS(=O)(=O)CC2)sc1-c1cnc(NC2CCCC2)cc1C(F)(F)F` [Example 28, (S)-5-(6-(Cyclopentylamino)-4-(trifluoromethyl)pyridin-3-yl)-N-(1,1-dioxidotetrahydro-2H-thiopyran-4-yl)-4-(2-methylpiperidine-1-carbonyl)thiazole-2-carboxamide], for which, at full-length human RORγt (Conditions B or C), the IC50 was 14 nM. Further, the inhibition at 6 µM on full-length human RORγt (read-out: RORγt (FL) Reporter Assay B or C, % inhibition @ 6 μM, Conditions B or C, @ 6 μM) came to 123%. Besides, the Kd in experiment [1] came out at 0.17 nM.

For `CC[C@H](Nc1cc(C(F)F)c(-c2sc(C(=O)NC3CCS(=O)(=O)CC3)nc2C(=O)N2CCC[C@@H]2C)cn1)C(F)(F)F` [Example 232, 5-(4-(Difluoromethyl)-6-(((S)-1,1,1-trifluorobutan-2-yl)amino)pyridin-3-yl)-N-(1,1-dioxidotetrahydro-2H-thiopyran-4-yl)-4-((S)-2-methylpyrrolidine-1-carbonyl)thiazole-2-carboxamide], on full-length human RORγt (Conditions B or C), the “RORγt (FL) Reporter Assay B or C, % inhibition (value marked *)” value is recorded as 122* % and the IC50 worked out at 69 nM. In addition, in experiment [1], the Kd turned out to be 3.4 nM.

Take `C[C@H]1CCCN1C(=O)c1nc(C(=O)N2CC(CO)C2)sc1-c1cnc(NC(C)(C)C)cc1C(F)(F)F` [Example 249, [5-[6-(tert-Butylamino)-4-(trifluoromethyl)-3-pyridyl]-2-[3-(hydroxymethyl)azetidine-1-carbonyl]thiazol-4-yl]-[(2S)-2-methylpyrrolidin-1-yl]methanone]: on full-length human RORγt, the inhibition at 3 µM stood at 103% and the IC50 came out at 24 nM. Further, the Kd in experiment [1] worked out at 8.1 nM.

Regarding `CC[C@H](Nc1cc(C(F)F)c(-c2sc(C(=O)N[C@@H]3C[C@H]3O)nc2C(=O)N2CCC[C@@H]2C)cn1)C(F)(F)F` (relative stereo) [Example 213, 5-(4-(Difluoromethyl)-6-(((S)-1,1,1-trifluorobutan-2-yl)amino)pyridin-3-yl)-N-((1R*,2R*)-2-hydroxycyclopropyl)-4-((S)-2-methylpyrrolidine-1-carbonyl)thiazole-2-carboxamide], at full-length human RORγt (Conditions B or C), the “RORγt (FL) Reporter Assay B or C, % inhibition (value marked *)” value is 103* % and the IC50 was 19 nM. In addition, in experiment [1], the Kd stood at 6.1 nM.

For `C[C@H](NC(=O)c1nc(C(=O)N2CC(F)(F)C[C@@H]2C)c(-c2cnc(NC(C)(C)C)cc2C(F)F)s1)C(C)(C)O` [Example 257, 5-[6-(tert-Butylamino)-4-(difluoromethyl)-3-pyridyl]-4-[(2S)-4,4-difluoro-2-methyl-pyrrolidine-1-carbonyl]-N-[(1S)-2-hydroxy-1,2-dimethyl-propyl]thiazole-2-carboxamide], at full-length human RORγt, the inhibition at 3 µM is 98% and the IC50 is 31 nM. The Kd in experiment [1] was 1.8 nM.

Turning to `C[C@H]1CCCN1C(=O)c1nc(C(=O)NCC(C)(C)O)sc1-c1cnc(NCC2CCC2)cc1C(F)F` [Example 301, (S)-5-(6-((Cyclobutylmethyl)amino)-4-(difluoromethyl)pyridine-3-yl)-N-(2-hydroxy-2-methylpropyl)-4-(2-methylpyrrolidine-1-carbonyl)thiazole-2-carboxamide], at full-length human RORγt, the inhibition at 3 µM came to 95% and the IC50 worked out at 84 nM. Also, the equilibrium dissociation constant (Kd) in experiment [1] is 30 nM.
